Calls of active or inactive are those of the source. How the calls were made is not given here.
Target: Glycogen synthase kinase-3 beta splice variant X1 (Bos taurus) (UniProt A0A059UE90)
Assay: Inhibition of bovine cerebral TPK1 assessed as reduction in P-GS1 phosphorylation using [32gammaP]ATP incubated for 2 hrs by liquid scintillation counting method

Row | SMILES | inhibition
1 | Cn1c(N2CCN[C@@H](c3ccc(N4CCC(N5CCCC5)CC4)cc3)C2)nc(-c2ccncc2F)cc1=O | Active
2 | Cn1c(N2CCN[C@@H](c3ccc(-c4ccc(N)cc4)cc3)C2)nc(-c2ccncc2F)cc1=O | Active
3 | CN(C)C1CCN(c2ccc([C@H]3CN(c4nc(-c5ccncc5F)cc(=O)n4C)CCN3)cc2)CC1 | Active
4 | Cc1nc(-c2ccc(C3CN(c4nc(-c5ccncc5F)cc(=O)n4C)CCN3)cc2)no1 (stereo not drawn) | Active
5 | C[C@@H]1CN(c2ccc([C@H]3CN(c4nc(-c5ccncc5F)cc(=O)n4C)CCN3)cc2)C[C@H](C)N1 | Active
6 | Cn1c(N2CCN[C@@H](c3ccc(C#N)cc3)C2)nc(-c2ccncc2F)cc1=O | Active
7 | Cn1c(N2CCO[C@@H](c3ccc(NC45CC6CC(CC(C6)C4)C5)cc3)C2)nc(-c2ccncc2F)cc1=O | Active
8 | COc1ccc(C#N)cc1[C@H]1CN(c2nc(-c3ccncc3F)c(F)c(=O)n2C)CCO1 | Active
9 | Cn1c(N2CCO[C@@H](c3ccc(NS(=O)(=O)c4ccccc4)cc3)C2)nc(-c2ccncc2F)cc1=O | Active
10 | COc1ccc(-c2ccc([C@H]3CN(c4nc(-c5ccncc5F)cc(=O)n4C)CCN3)cc2)c(OC)c1 | Active
11 | Cn1c(N2CCO[C@@H](c3ccc(-c4ncon4)cc3)C2)nc(-c2ccncc2F)cc1=O | Active
12 | Cn1c(N2CCO[C@@H](c3ccc(N(CC(F)(F)F)CC(F)(F)F)cc3)C2)nc(-c2ccncc2F)cc1=O | Active
13 | CCc1nc(-c2ccc([C@H]3CN(c4nc(-c5ccncc5F)cc(=O)n4C)CCN3)cc2)no1 | Active
14 | Cn1c(N2CCN[C@@H](c3ccc(-c4ccc(OC(F)(F)F)cc4)cc3)C2)nc(-c2ccncc2F)cc1=O | Active
15 | Cn1c(N2CCN[C@@H](c3ccc(N4CC[C@H](N5CCCC5)C4)cc3)C2)nc(-c2ccncc2F)cc1=O | Active
16 | COc1ccc(NS(C)(=O)=O)cc1[C@H]1CN(c2nc(-c3ccncc3F)cc(=O)n2C)CCO1 | Active
17 | COc1ccc([C@H]2CN(c3nc(-c4ccncc4F)c(Br)c(=O)n3C)CCO2)cc1 | Active
18 | Cn1c(N2CCO[C@@H](c3ccc(N)c(F)c3)C2)nc(-c2ccncc2F)cc1=O | Active
19 | Cn1c(N2CCO[C@@H](c3ccc(NC(=S)Nc4cccnc4)cc3)C2)nc(-c2ccncc2F)cc1=O | Active
20 | Cn1c(N2CCN[C@@H](c3ccc(-c4ccc(C#N)cc4)cc3)C2)nc(-c2ccncc2F)cc1=O | Active
21 | Cn1c(N2CCO[C@@H](c3ccc(Nc4cccnc4)cc3)C2)nc(-c2ccncc2F)cc1=O | Active
22 | CC(=O)N(c1ccc([C@H]2CN(c3nc(-c4ccncc4F)cc(=O)n3C)CCO2)cc1)C1CCCCC1 | Active
23 | CCN(CC)CCOc1ccc([C@H]2CN(c3nc(-c4ccncc4F)cc(=O)n3C)CCO2)cc1 | Active
24 | CCN(CC)c1ccc([C@H]2CN(c3nc(-c4ccncc4F)cc(=O)n3C)CCO2)c(OC)c1 | Active
25 | Cn1c(N2CCN[C@@H](c3ccc(-c4ccc(Cl)cc4)cc3)C2)nc(-c2ccncc2F)cc1=O | Active
26 | Cn1c(N2CCNC(c3ccc(-c4ncon4)cc3)C2)nc(-c2ccncc2F)cc1=O (stereo not drawn) | Active

More lines, now with the values ahead:

Row | inhibition | SMILES
27 | Active | Cn1c(N2CCO[C@@H](c3ccc(N4CC[C@H](N5CCCC5)C4)cc3)C2)nc(-c2ccncc2F)cc1=O
28 | Active | Cn1c(N2CCO[C@@H](c3ccc(N4CCOCC4)cc3)C2)nc(-c2ccncc2F)cc1=O
29 | Active | Cn1c(N2CCO[C@@H](c3ccc(NC(=O)CN4CCCC4)cc3)C2)nc(-c2ccncc2F)cc1=O
30 | Active | Cn1c(N2CCO[C@@H](c3ccc(N4CCCCC4)cc3)C2)nc(-c2ccncc2F)cc1=O
31 | Active | CC(=O)N(C)c1ccc([C@H]2CN(c3nc(-c4ccncc4F)cc(=O)n3C)CCO2)cc1
32 | Active | Cn1c(N2CCO[C@@H](c3ccc(N4CCc5ccccc54)cc3)C2)nc(-c2ccncc2F)cc1=O
33 | Active | Cn1c(N2CCO[C@@H](c3ccc(N4CCN(c5ccccc5)CC4)cc3)C2)nc(-c2ccncc2F)cc1=O
34 | Active | Cn1c(N2CCO[C@@H](c3ccc(N4CCC(N5CCCCC5)CC4)cc3)C2)nc(-c2ccncc2F)cc1=O
35 | Active | Cn1c(N2CCO[C@@H](c3ccc(OC4CCCCC4)cc3)C2)nc(-c2ccncc2F)cc1=O
36 | Active | Cn1c(N2CCO[C@@H](c3ccc(OC(F)(F)F)cc3)C2)nc(-c2ccncc2F)cc1=O
37 | Active | CN1CCN(CCCOc2ccc([C@H]3CN(c4nc(-c5ccncc5F)cc(=O)n4C)CCO3)cc2)CC1
38 | Active | Cc1cc(N2CCN(c3ccc(C4CN(c5nc(-c6ccncc6F)cc(=O)n5C)CCO4)cc3)CC2)n(-c2ccccc2)n1 (stereo not drawn)
39 | Active | Cn1c(N2CCO[C@@H](c3ccc(N4CCN(CCO)CC4)cc3)C2)nc(-c2ccncc2F)cc1=O
40 | Active | Cn1c(N2CCO[C@@H](c3ccc(C(C)(C)O)cc3)C2)nc(-c2ccncc2F)cc1=O
41 | Active | Cn1c(N2CCO[C@@H](c3ccc(NC(=O)CN4CCOCC4)cc3)C2)nc(-c2ccncc2F)cc1=O
42 | Active | CC1CC1C(=O)Nc1ccc([C@H]2CN(c3nc(-c4ccncc4F)cc(=O)n3C)CCO2)cc1 (stereo partly drawn)

Row | inhibition | SMILES
43 | Active | CN1CCN(c2ccc([C@H]3CN(c4nc(-c5ccncc5F)cc(=O)n4C)CCO3)cc2)CC1
44 | Active | CCOC(=O)Nc1ccc([C@H]2CN(c3nc(-c4ccncc4F)cc(=O)n3C)CCO2)cc1
45 | Active | Cn1c(N2CCO[C@@H](c3ccc(N4CC(O)C4)cc3)C2)nc(-c2ccncc2F)cc1=O
46 | Active | Cn1c(N2CCO[C@@H](c3ccccc3)C2)nc(-c2ccncc2F)cc1=O
47 | Active | Cn1c(N2CCO[C@@H](c3ccc(N4CCC(O)C4)cc3)C2)nc(-c2ccncc2F)cc1=O (stereo partly drawn)
48 | Active | CN(C)c1ccc([C@H]2CN(c3nc(-c4ccncc4F)cc(=O)n3C)CCO2)cc1
49 | Active | Cn1c(N2CCO[C@@H](c3ccc(OC4CCCC4)cc3)C2)nc(-c2ccncc2F)cc1=O
50 | Active | CCN(c1ccc([C@H]2CN(c3nc(-c4ccncc4F)cc(=O)n3C)CCO2)cc1)C1CCCCC1
51 | Active | Cn1c(N2CCO[C@@H](c3ccc(N4CCC4)cc3)C2)nc(-c2ccncc2F)cc1=O
52 | Active | Cn1c(N2CCO[C@@H](c3ccc(N4CC[C@@H](N5CCCCC5)C4)cc3)C2)nc(-c2ccncc2F)cc1=O
53 | Active | CN1CCC(Oc2ccc([C@H]3CN(c4nc(-c5ccncc5F)cc(=O)n4C)CCO3)cc2)CC1
54 | Active | Cn1c(N2CCO[C@@H](c3ccc(OCCN4CCCCC4)cc3)C2)nc(-c2ccncc2F)cc1=O
55 | Active | CC(=O)N(C)[C@@H]1CCN(c2ccc([C@H]3CN(c4nc(-c5ccncc5F)cc(=O)n4C)CCO3)cc2)C1
56 | Active | Cn1c(N2CCN[C@@H](c3ccc(N4CCC(O)CC4)cc3)C2)nc(-c2ccncc2F)cc1=O
57 | Active | Cn1c(N2CCO[C@@H](c3ccc(N4CCC[C@H]5CCCC[C@@H]54)cc3)C2)nc(-c2ccncc2F)cc1=O
58 | Active | Cn1c(N2CCN[C@@H](c3ccc(N4CCOCC4)cc3)C2)nc(-c2ccncc2F)cc1=O
